Assay results reported in patent US8207314B2, “Tumor antigens for prevention and/or treatment of cancer” (Sanofi Pasteur Limited, priority 2003, dated 2012).

Legend:
[1] = system: Non-transfected CosA2 cells; assay: Zeocin selection of non-transfected cells; type: cell-based; settings: for confluency of surviving cells: three weeks
Description: A stable transfection study was initiated to obtain stable clones of BFA4 expressing COS A2 cells. These cells are useful for in vitro stimulation assays pcDNA 3.1 zeo^R/BFA4 (2.5 μg and 20 μg), and pcDNA 3.1 zeo^R/BFA4/MycHis tag (2.5 μg) were used to study expression of BFA4). pGL3 Luciferase (2.5 μg) was used as a control vector to monitor transfection efficiency. The Gene porter reagent was used to facilitate transfection of DNA vectors. After 48 h post-transfection, whole cell extract were prepared by scraping cells in the cell lysis reagent (200 μl) and 1 cycle of freeze-thaw at −20° C./37° C. for first experiment. Transfected cells obtained from the second experiment were trypsinized, frozen stock established and cells were plated in increasing concentrations of Zeocin (0, 250, 500, 750 and 1000 μg/ml). Non-transfected CosA2cells survived at 60-80% confluency for three weeks at 100 μg/ml (Zeocin) and 10% confluency at 250 μg/ml (Zeocin).

HLA-A*0201 human T cells = assay: IFN-γ ELISPOT of human T cells activated with BFA5/NYBR-1 peptide pools and single peptides; type: cell-based; settings: for BFA5 peptides eliciting high IFN-γ release (>200 spots/100,000 cells): listing = result; for IFN-γ secretion in T cells from both donors: donors AP10 and AP31
Description: A library of 100 peptides from the BFA5/NYBR-1 coding sequence that are predicted to be medium to high binders to HLA-A*0201 were designed using Rammensee and Parker algorithms. The library was sub-divided into 10 pools of ten peptides (see Table XI), and each pool was used to activate 10 different T cell cultures after pulsing peptides on to mature autologous dendritic cells.
ELISPOT analysis was performed on human T-cell cultures activated through four rounds of stimulation with each pool of BFA5 peptides. In FIG. 13A, the numbers under the X-axis indicate the number of each peptide pool (1-10). Reactivity against a CMV pp65 peptide, and a Flu matrix peptide were used as positive controls for T-cell activation in the experiments. Each experiment was performed with PBMC and dendritic cells from a single HLA-A*0201^+ donor designated as “AP10”. […] Similar results were obtained for both BFA4 and BFA5/NYBR-1 with a different HLA-A*0201. […] Cultures having a reading of 600 spots have more than this number of spots.
A large number of the BFA5 peptide pools of are reactive as shown by the high levels of IFN-γ production (FIG. 13A). Each reactive peptide pool was then separated into individual peptides and analyzed for immunogenicity using ELISPOT analysis to isolate single reactive BFA5 peptides. […] Similar results were obtained in two independent PBMC culture experiments.

BFA4 = assay: Rabbit antibody titers after immunization with BFA4 22-mer peptides; type: in vivo
Excerpt: For monitoring purposes, rabbit anti-BFA4 polyclonal antibodies were generated. Six peptides (22-mers) were designed and synthesized to elicit antibody response to BFA4, as shown below:
Rabbits were immunized with the peptides, serum was isolated, and the following antibody titers were observed: […]

[2] = system: peptide-loaded human T2 lymphoma cell targets; assay: CTL killing of BFA4 peptide-pulsed target cells; type: cell-based; settings: single BFA4 peptides, listing = result
peptide-loaded T2 cells = assay: 51Cr-release CTL assay with BFA5 peptide-activated human T cells; type: cell-based; settings: for CTL activity in T cells from both donors: donors AP10 and AP31
Description: In addition to ELISPOT analysis, human T cells activated by BFA5 peptides were assayed to determine their ability to function as CTL. The cells were activated using peptide-pulsed dendritic cells followed by CD40 ligand-activated B cells (5 rounds of stimulation). The experiment shown was performed with isolated PBMC from HLA-A*0201^+ donor AP31. Isolated T cells were tested in ^51Cr-release assays using peptide-loaded T2 cells. The % specific lysis at a 10:1, 5:1, and 1:1 T-cell to target ratio is shown for T2 cells pulsed with either pools of BFA5/NYBR-1 peptides or with individual peptides. […] CTL activity (percent specific lysis) induced by the control HIV peptide was generally <10%. Similar results were obtained with another PBMC donor expressing HLA-A*0201 (AP10). […]

[3] = system: Human PBMC from an HLA-A2.1 positive donor; assay: IFN-γ ELISPOT of human T cells activated with BFY3 peptide pools and deconvolution to single peptides; type: cell-based; settings: BFY3 nonamer peptides; listing = result
Excerpt: Human PBMC from an HLA-A2.1 positive donor designated AP31 were activated with autologous dendritic cells pulsed with different pools of 9-mer peptides from the BFY3 antigen (see Table I for list). The activated T cells were re-stimulated after 12 days with activated autologous CD40-ligand-activated B cells pulsed with the same respective peptide pools for another 8 to 10 days. This secondary activation was repeated 2 more time for a total of 4 stimulations. The activated T cells were isolated after the 4th stimulation and subjected to ELISPOT analysis for human IFN-γ production against their respective BFY3 peptide pools as shown. The blue bars show reactivity against the BFY3 peptide pools and the red bars are for an HLA-A2.1-binding HIV peptide as a negative control. Standard deviations are indicated. The experiment was repeated 2 times on activated T cells from different rounds of peptide stimulation with the similar results (FIG. 17A).
The BFY3 peptide pools were deconvoluted and studied in IFN-γ ELISPOT assays. Stimulation was performed as described earlier for the other antigens described. After 4 rounds of stimulation, the T cells from each culture were harvested and subjected to ELISPOT analysis for IFN-γ production with each individual peptide in each pool. FIG. 17B illustrates individual peptide reactivity for each specific pool.

[4] = system: targets pulsed with corresponding peptide pools; assay: CTL killing of targets pulsed with BFY3 peptide pools or peptides; type: cell-based, human; settings: for Peptides eliciting CTL activity (peptide pulsed targets): BFY3 nonamer peptides, listing = result; for recognition of single peptides by CTL: BFY3 peptides, peptide-pulsed targets
Description: (§1) In addition to ELISPOT analysis, human T cells activated by BFY3 peptides were assayed for reactivity. Ten pools of peptides consisting often peptides per pool used to generate CTL. These 10 groups of effectors used to kill targets pulsed with corresponding peptide pools. […]

[5] = system: CosA2 cells transfected with BFY3; assay: CTL killing of BFY3-transfected cells; type: cell-based; settings: CTL generated from BFY3 peptide pools
Description: as §1

[6] = first-listed rabbit of the pair
[7] = second-listed rabbit of the pair

Compound: Cc1c(N)nc([C@H](CC(N)=O)NC[C@H](N)C(N)=O)nc1C(=O)N[C@H](C(=O)N[C@H](C)[C@@H](O)[C@H](C)C(=O)N[C@H](C(=O)NCCC1=N[C@@H](c2nc(C(=O)NCCCCN=C(N)N)cs2)CS1)[C@@H](C)O)[C@@H](O[C@@H]1O[C@@H](CO)[C@@H](O)[C@H](O)[C@@H]1O[C@H]1O[C@H](CO)[C@@H](O)[C@H](OC(N)=O)[C@@H]1O)c1cnc[nH]1 [Zeocin]
- confluency of surviving cells ([1]; 100 μg/ml): 60-80%
- confluency of surviving cells ([1]; 250 μg/ml): 10%
- live cells ([1]; 500-1000 μg/ml, after three weeks): live cells were not observed

Compound: ALRICDIEL [CLP 3043]
- BFA5 peptides eliciting high IFN-γ release (>200 spots/100,000 cells) (HLA-A*0201 human T cells; Donor AP10): ALRIQDIEL

Compound: ANGASKEKTKAPPNVKNEGPLNV [CLP2594]
- Titer (Bleed 2) (BFA4; [6]): 409600, 409600
- Titer (Final Bleed) (BFA4; [6]): 320000, 320000
- Titer (Bleed 2) (BFA4; [7]): 409600, 409600
- Titer (Final Bleed) (BFA4; [7]): 320000, 320000

Compound: ASLGLLTPV [CLP 2482]
- Strong CTL Killing (listed as highly immunoreactive peptide) [2]: ASLGLLTPV

Compound: ATDGMKVSI [CLP 3054]
- BFA5 peptides eliciting high IFN-γ release (>200 spots/100,000 cells) (HLA-A*0201 human T cells; Donor AP10): ATCGMKVSI
- BFA5 peptides inducing CTL lysis of pulsed cells (peptide-loaded T2 cells; Donor AP10, listing = result): ATCGMKVSI

Compound: ELCSVRLTL [CLP 3050]
- IFN-γ secretion in T cells from both donors (HLA-A*0201 human T cells): induce
- CTL activity in T cells from both donors (peptide-loaded T2 cells): induce

Compound: FTTPDVDVL [CLP 2468]
- Strong CTL Killing (listed as highly immunoreactive peptide) [2]: FTTPDVDVL

Compound: GLHRNNAQV [CLP 2520]
- Strong CTL Killing (listed as highly immunoreactive peptide) [2]: GLHRNNAQV

Compound: HAIEEVPHV [CLP 3344]
- Peptides eliciting strong IFN-γ ELISPOT activity [3]: HAIEEVPHV
- Peptides eliciting CTL activity (peptide pulsed targets) [4]: HAIEEVPHV
- recognition of single peptides by CTL [4]: strongly recognized
- killing of CosA2 cells transfected with BFY3 by CTL [5]: responsible for this cytotoxicity

Compound: HLARDFGYV [CLP 3387]
- Peptides eliciting strong IFN-γ ELISPOT activity [3]: HLARDFGYV
- Peptides eliciting CTL activity (peptide pulsed targets) [4]: HLARDFGYV
- recognition of single peptides by CTL [4]: strongly recognized

Compound: HLARPIYGL [CLP 2486]
- Strong CTL Killing (listed as highly immunoreactive peptide) [2]: HLARPIYGL

Compound: ILIDSGADI [CLP 3005]
- IFN-γ secretion in T cells from both donors (HLA-A*0201 human T cells): induce
- CTL activity in T cells from both donors (peptide-loaded T2 cells): induce

Compound: ILSVVAKLL [CLP 3011]
- IFN-γ secretion in T cells from both donors (HLA-A*0201 human T cells): induce
- CTL activity in T cells from both donors (peptide-loaded T2 cells): induce

Compound: KAANVTLLT [CLP 3378]
- Peptides eliciting strong IFN-γ ELISPOT activity [3]: KAANVTLLT
- Peptides eliciting CTL activity (peptide pulsed targets) [4]: KAANVTLLT
- recognition of single peptides by CTL [4]: strongly recognized

Compound: KLDKIGLNL [CLP 3372]
- Peptides eliciting strong IFN-γ ELISPOT activity [3]: KLDKIGLNL
- Peptides eliciting CTL activity (peptide pulsed targets) [4]: KLDKIGLNL
- recognition of single peptides by CTL [4]: strongly recognized

Compound: KSQIEPAFH [CLP 3037]
- BFA5 peptides eliciting high IFN-γ release (>200 spots/100,000 cells) (HLA-A*0201 human T cells; Donor AP31): KSQEPAFHI

Compound: KYKVTVAEV [CLP 3362]
- Peptides eliciting strong IFN-γ ELISPOT activity [3]: KYKVTVAEV
- Peptides eliciting CTL activity (peptide pulsed targets) [4]: KYKVTVAEV
- recognition of single peptides by CTL [4]: Moderately recognized

Compound: LLGGVLRRA [CLP 3369]
- Peptides eliciting strong IFN-γ ELISPOT activity [3]: LLGGVLRRA
- Peptides eliciting CTL activity (peptide pulsed targets) [4]: LLGGVLRRA
- recognition of single peptides by CTL [4]: Moderately recognized

Compound: LMDMQTFKA [CLP 2983]
- IFN-γ secretion in T cells from both donors (HLA-A*0201 human T cells): induce
- CTL activity in T cells from both donors (peptide-loaded T2 cells): induce

Compound: LNASLLGGV [CLP 3366]
- Peptides eliciting strong IFN-γ ELISPOT activity [3]: LNASLLGGV
